The source of these data is US20240067693A1, “POLYPEPTIDES AND USES THEREOF” (MEDIMMUNE LIMITED, priority 2020, published 2024).

In one data set the test system is lean rats. The data set is described as follows: Rat acute food intake study. Format: in vivo. As to conditions: lean male Sprague Dawley rats, 20 nmol/kg subcutaneously. The procedure, abridged:
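Male Sprague Dawley rats (n=7/group), fasted 6 h, received 20 nmol/kg test compound or 60 nmol/kg pramlintide subcutaneously 30 min before food return at dark onset. Food intake recorded automatically in home cages over 3 days, binned hourly and analysed as cumulative dark-period intake; body weight taken daily.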

Data set [1] is described as follows: Pharmacokinetic determination via IV and SC administration in Sprague Dawley rats. As to conditions: male, rat, plasma, 20 nmol/kg.
Data set [2] addresses T1, rat amylin receptor (calcitonin receptor co-expressed with receptor activity modifying protein, RAMP3) (Rat AMYR3) (Rattus norvegicus, UniProt P32214+Q9JJ73).
T1 construct: expressed in transfected cells
T1 sequence (P32214 25-516): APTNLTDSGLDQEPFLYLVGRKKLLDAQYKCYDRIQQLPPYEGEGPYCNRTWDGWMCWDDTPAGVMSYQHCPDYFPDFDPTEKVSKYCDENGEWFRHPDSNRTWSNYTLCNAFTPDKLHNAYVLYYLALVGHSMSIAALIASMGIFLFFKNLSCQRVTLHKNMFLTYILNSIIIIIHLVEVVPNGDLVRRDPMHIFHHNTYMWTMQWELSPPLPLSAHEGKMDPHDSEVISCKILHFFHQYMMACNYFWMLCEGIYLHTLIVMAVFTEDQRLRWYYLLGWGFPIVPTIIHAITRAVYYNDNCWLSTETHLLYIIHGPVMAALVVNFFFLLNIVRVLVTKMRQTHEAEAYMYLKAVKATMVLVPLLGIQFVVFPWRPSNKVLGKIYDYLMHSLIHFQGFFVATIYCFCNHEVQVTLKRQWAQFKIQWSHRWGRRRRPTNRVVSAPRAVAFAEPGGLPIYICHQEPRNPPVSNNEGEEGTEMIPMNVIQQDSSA
T1 sequence (Q9JJ73 23-147 partner): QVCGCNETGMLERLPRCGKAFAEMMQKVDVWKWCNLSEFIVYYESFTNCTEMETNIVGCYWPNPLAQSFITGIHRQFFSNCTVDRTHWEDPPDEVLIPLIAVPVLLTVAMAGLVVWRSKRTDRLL
Put plainly: cAMP production in HEK cells with stable recombinant expression of rat amylin receptor (Rat AMYR3). Format: cell-based. As to conditions: assay buffer with 0.1% BSA. The procedure, abridged: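 Thawed cells in HBSS/0.1% BSA/25 mM HEPES pH 7.4 with 0.5 mM IBMX were incubated with peptides 30 min at room temperature; cAMP read by HTRF. EC50 from 4-parameter fit of % activation relative to maximal amylin or calcitonin effect.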
(Changes in cAMP serve as a functional read-out for many G protein-coupled receptors.)

Numbered stars: 1 amine (or outer) side, 2 acyl side, 3 side chain; on linkers, the order of the positions; unused ones are H or OH. Bridge positions count the residues as written; N and C are the ends. Square brackets hold non-standard residues; d marks the D form. Side chains are listed from the residue outwards. Peptide text beside a SMILES is read from it. * marks the point of attachment. C18 diacid = O=C(O)CCCCCCCCCCCCCCCCC(=O)*; γGlu = O=C(O)[C@H](CCC(=O)[*:2])N[*:1]; αMeF = C[C@](N)(Cc1ccccc1)C(=O)O

The term half-life denotes the time in which the quantity being followed falls by half. One may read the EC50 as the concentration at which the effect is half-maximal. For `CC[C@H](C)[C@H](NC(=O)[C@@H]1CCCN1C(=O)CNC(=O)[C@](C)(Cc1ccccc1)NC(=O)[C@H](CC(N)=O)NC(=O)[C@H](CC(N)=O)NC(=O)[C@H](CO)NC(=O)[C@H](CO)NC(=O)[C@H](Cc1c[nH]cn1)NC(=O)[C@H](CCCNC(=N)N)NC(=O)[C@H](CC(C)C)NC(=O)[C@H](Cc1ccccc1)NC(=O)[C@H](CCC(=O)O)NC(=O)[C@H](C)NC(=O)[C@H](CC(C)C)NC(=O)[C@H](CCCNC(=N)N)NC(=O)[C@H](CCC(N)=O)NC(=O)[C@@H](NC(=O)[C@H](C)NC(=O)[C@@H]1CSSC[C@H](NC(=O)[C@H](CCCCN)NC(=O)[C@@H](N)CCCCNC(=O)CC[C@H](NC(=O)CCCCCCCCCCCCCCCCC(=O)O)C(=O)O)C(=O)N[C@@H](CC(N)=O)C(=O)N[C@@H]([C@@H](C)O)C(=O)N[C@@H](C)C(=O)N[C@@H]([C@@H](C)O)C(=O)N1)[C@@H](C)O)C(=O)N[C@@H](CC(C)C)C(=O)N1CCC[C@H]1C(=O)N1CCC[C@H]1C(=O)N[C@H](C(=O)N[C@@H](CC(N)=O)C(=O)N[C@H](C(=O)NCC(=O)N[C@@H](CO)C(=O)N[C@@H](CC(N)=O)C(=O)N[C@H](C(=O)N[C@@H](Cc1ccc(O)cc1)C(N)=O)[C@@H](C)O)C(C)C)[C@@H](C)O` [Peptide 12, K(γE-C18diacid)K[CNTATC]ATQRLAEFLRHSSNN(αMePhe)GPILPPTNVGSNTY-amide] (H-K([γGlu-C18 diacid])KCNTATCATQRLAEFLRHSSNN[αMeF]GPILPPTNVGSNTY-NH2; disulfide 3-8; N-terminus assumed), in the data set on lean rats, the “Cummulative food intake (% vehicle treated intake) At 12 h” value was 9.4 % vehicle treated intake, the “Cummulative food intake (% vehicle treated intake) At 24 h” value came to 7.5 % vehicle treated intake and the “Cummulative food intake (% vehicle treated intake) At 48 h” value turned out to be 23.6 % vehicle treated intake. In data set [1] (iv), this compound gave a half-life of 9.2 h. In data set [1] (sc), this compound had a half-life of 9.7 h. Besides, the EC50 in data set [2] was 5 pM.

Consider `CC[C@H](C)[C@H](NC(=O)[C@@H]1CCCN1C(=O)CNC(=O)[C@](C)(Cc1ccccc1)NC(=O)[C@H](CC(N)=O)NC(=O)[C@H](CC(N)=O)NC(=O)[C@H](CO)NC(=O)[C@H](CO)NC(=O)[C@H](Cc1c[nH]cn1)NC(=O)[C@H](CCCNC(=N)N)NC(=O)[C@H](CC(C)C)NC(=O)[C@H](Cc1ccccc1)NC(=O)[C@H](CC(N)=O)NC(=O)[C@H](C)NC(=O)[C@H](CC(C)C)NC(=O)[C@H](CCCNC(=N)N)NC(=O)[C@H](CCC(N)=O)NC(=O)[C@@H](NC(=O)[C@H](C)NC(=O)[C@@H]1CSSC[C@H](NC(=O)[C@H](CCCCN)NC(=O)[C@@H](N)CCCCNC(=O)CC[C@H](NC(=O)CCCCCCCCCCCCCCCCC(=O)O)C(=O)O)C(=O)N[C@@H](CC(N)=O)C(=O)N[C@@H]([C@@H](C)O)C(=O)N[C@@H](C)C(=O)N[C@@H]([C@@H](C)O)C(=O)N1)[C@@H](C)O)C(=O)N[C@@H](CC(C)C)C(=O)N1CCC[C@H]1C(=O)N1CCC[C@H]1C(=O)N[C@H](C(=O)N[C@@H](CCC(=O)O)C(=O)N[C@H](C(=O)NCC(=O)N[C@@H](CO)C(=O)N[C@@H](CC(N)=O)C(=O)N[C@H](C(=O)N[C@@H](Cc1ccc(O)cc1)C(N)=O)[C@@H](C)O)C(C)C)[C@@H](C)O` [Peptide 15, K(γE-C18diacid)K[CNTATC]ATQRLANFLRHSSNN(αMePhe)GPILPPTEVGSNTY-amide] (H-K([γGlu-C18 diacid])KCNTATCATQRLANFLRHSSNN[αMeF]GPILPPTEVGSNTY-NH2; disulfide 3-8; N-terminus assumed), for which, in the data set with lean rats, the “Cummulative food intake (% vehicle treated intake) At 12 h” value was found to be 45.2 % vehicle treated intake, the “Cummulative food intake (% vehicle treated intake) At 24 h” value is 49.1 % vehicle treated intake and the “Cummulative food intake (% vehicle treated intake) At 48 h” value is on record as 51 % vehicle treated intake. The compound further gave a half-life in data set [1] (iv) of 10.4 h. Moreover, in data set [1] (sc), the half-life was 11.5 h. Also, the EC50 in data set [2] stood at 10.3 pM.
